Results as given in PMC5224880, “Discovery and Molecular Basis of a Diverse Set of Polycomb Repressive Complex 2 Inhibitors Recognition by EED” (PLoS ONE, 2017).

How the values were obtained:
His-EED (residues 1–441) = target: T1, His-EED (residues 1–441) (Homo sapiens, UniProt O75530); assay: biochemical; conditions: 30 nM His-EED, 15 nM biotin-H3K27me3 (19–33) peptide; read-out: IC50, EED-H3K27me3 AlphaScreen competition binding assay
T1 construct: 30 nM His-EED (residues 1–441) protein
Procedure: The data were then fit to a dose response equation using the program Helios (Novartis) to determine the IC50 values.
Each compound was counterscreened to determine if it interfered with the AlphaScreen beads. Compounds were diluted as described in the preceding section, and the assay was performed by adding 12 μL of 10 nM Biotin-miniPEG-His6 peptide in the above buffer and incubated for 20 min at room temperature prior to addition of the acceptor and donor beads. The plates were then incubated for 1 h at room temperature in the dark before being read on the EnVision system (Perkin Elmer).
In addition to the enzymatic assay, we also developed a binding assay to measure the interaction between His-tagged recombinant EED protein and a biotinylated H3K27me3 peptide using the Amplified Luminescence Proximity Homogenous Assay Screen (AlphaScreen) [33, 34]. Binding of Biotin-H3K27me3 peptide to His-EED protein brings the streptavidin-coated donor beads and anti-His antibody coated acceptor beads into close proximity and thus a luminescent signal is produced. Disruption of EED-H3K27me3 interaction by H3K27me3 pocket binders will result in the signal reduction.

G9a = target: T2, G9a (Homo sapiens, UniProt Q96KQ7); assay: HMT panel selectivity: G9a; assay type: biochemical
T2 sequence (Q96KQ7 1-1210): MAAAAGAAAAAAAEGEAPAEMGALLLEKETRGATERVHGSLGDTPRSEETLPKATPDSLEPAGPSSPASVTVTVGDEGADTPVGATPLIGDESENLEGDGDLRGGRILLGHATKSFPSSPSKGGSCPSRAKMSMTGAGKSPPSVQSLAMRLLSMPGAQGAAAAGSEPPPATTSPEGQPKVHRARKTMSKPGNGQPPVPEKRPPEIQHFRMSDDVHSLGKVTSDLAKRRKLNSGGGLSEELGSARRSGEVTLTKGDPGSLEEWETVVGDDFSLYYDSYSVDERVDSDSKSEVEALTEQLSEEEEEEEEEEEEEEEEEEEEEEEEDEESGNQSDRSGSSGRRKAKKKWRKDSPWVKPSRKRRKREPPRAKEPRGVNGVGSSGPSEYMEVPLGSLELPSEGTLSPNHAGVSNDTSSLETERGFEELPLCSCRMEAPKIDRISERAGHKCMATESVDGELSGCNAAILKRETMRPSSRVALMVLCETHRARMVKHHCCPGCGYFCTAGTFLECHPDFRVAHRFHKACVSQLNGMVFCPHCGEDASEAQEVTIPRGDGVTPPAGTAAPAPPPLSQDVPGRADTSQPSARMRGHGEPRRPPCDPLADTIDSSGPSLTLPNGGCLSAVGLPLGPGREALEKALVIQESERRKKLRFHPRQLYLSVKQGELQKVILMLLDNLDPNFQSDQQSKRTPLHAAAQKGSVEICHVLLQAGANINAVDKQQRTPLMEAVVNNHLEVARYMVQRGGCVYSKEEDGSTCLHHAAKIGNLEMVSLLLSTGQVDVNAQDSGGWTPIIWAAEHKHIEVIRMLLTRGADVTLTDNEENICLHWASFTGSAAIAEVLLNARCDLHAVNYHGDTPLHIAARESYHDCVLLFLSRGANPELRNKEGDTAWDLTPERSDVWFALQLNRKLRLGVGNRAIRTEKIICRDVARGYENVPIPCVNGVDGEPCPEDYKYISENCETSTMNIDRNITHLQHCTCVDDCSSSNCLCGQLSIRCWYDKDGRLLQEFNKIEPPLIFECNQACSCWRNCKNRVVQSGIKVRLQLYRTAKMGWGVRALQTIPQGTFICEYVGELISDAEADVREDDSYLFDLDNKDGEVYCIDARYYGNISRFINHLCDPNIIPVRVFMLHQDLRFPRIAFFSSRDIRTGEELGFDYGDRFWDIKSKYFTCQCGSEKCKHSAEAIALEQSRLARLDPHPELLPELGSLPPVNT
Procedure: Note: for EZH2, EZH2/EED/SUZ12/RBAP48/AEBP2 was used in the assay; for EZH1, EZH1/EED/SUZ12/RBAP48/AEBP2 was used in the assay; for MLL, MLL/WDR5/RBBP5/ASH2L/ was use in the assay. a, H3K27me0 peptide was used as substrate for both EZH2 and EZH1 activity; b, H3K27me1 peptide was used as substrate for both EZH2 and EZH1 activity. All HMT reactions were performed as described previously. ref: Proc Natl Acad Sci U S A. 2012 Dec 26;109(52):21360-5.

recombinant EED = recombinant EED (Homo sapiens, UniProt O75530); assay: ITC binding analysis; conditions: 25°C
Chain of recombinant EED (O75530 76-441 limits assumed): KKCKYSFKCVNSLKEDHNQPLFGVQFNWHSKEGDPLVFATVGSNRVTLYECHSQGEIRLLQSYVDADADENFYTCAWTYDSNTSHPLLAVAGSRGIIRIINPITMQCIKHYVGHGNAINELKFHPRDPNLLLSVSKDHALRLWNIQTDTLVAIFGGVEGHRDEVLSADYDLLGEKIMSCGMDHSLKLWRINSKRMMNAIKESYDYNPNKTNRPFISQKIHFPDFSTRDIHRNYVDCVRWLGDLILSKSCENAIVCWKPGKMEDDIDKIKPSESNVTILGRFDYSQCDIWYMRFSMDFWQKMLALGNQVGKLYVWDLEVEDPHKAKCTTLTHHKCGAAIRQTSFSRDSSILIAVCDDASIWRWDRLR
Procedure: ITC experiments were performed on an Auto ITC200 (Microcal) at 25°C. The ITC sample cell was filled with 10 μM PRC2 in titration buffer containing 25 mM HEPES pH8.0, 150 mM NaCl, and 1% DMSO. 40 μL of 100 μM compounds in the same titration buffer was loaded in the ITC syringe. 19 injections, each of 2 μL, was injected into the ITC cell at 150 s intervals. Binding constant (K) and binding enthalpy (ΔH) determinations were obtained from the fit to the experimental data using a one-site model.
Both isothermal calorimetry (ITC) and surface plasmon resonance (SPR) assay were established for this purpose.

T1 sequence (O75530 whole entry, the tested form may be a part): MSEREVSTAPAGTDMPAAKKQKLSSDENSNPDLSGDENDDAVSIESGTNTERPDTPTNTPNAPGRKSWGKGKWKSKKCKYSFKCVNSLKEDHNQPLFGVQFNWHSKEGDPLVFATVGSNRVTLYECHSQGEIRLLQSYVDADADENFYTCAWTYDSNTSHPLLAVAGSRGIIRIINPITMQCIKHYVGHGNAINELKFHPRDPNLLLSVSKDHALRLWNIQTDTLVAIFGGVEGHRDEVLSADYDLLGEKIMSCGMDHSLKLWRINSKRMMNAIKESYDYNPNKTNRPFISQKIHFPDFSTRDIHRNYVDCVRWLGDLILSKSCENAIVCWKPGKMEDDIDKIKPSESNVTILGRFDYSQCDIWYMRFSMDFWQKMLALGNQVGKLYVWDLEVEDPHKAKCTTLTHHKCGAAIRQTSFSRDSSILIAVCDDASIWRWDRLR

Row | Structure (SMILES) | IC50 (His-EED (residues 1–441)) [µM] | IC50 (G9a) [µM] | enthalpy change (ITC) (recombinant EED) [kcal/mol] | entropy change (ITC) (recombinant EED) [cal/mol/deg] | stoichiometry of binding N (ITC) (recombinant EED)
1 | N#Cc1c2c(c3nncn3c1NCc1ccco1)CN(Cc1ccccc1)CC2 [EED162] | 0.32 | > 100 |  |  | 
2 | COc1cccc(CC2CC3Cc4c(cccc4OC)CC3N(C)C2)c1 (stereo not drawn) [EED210] |  | > 100 | -20.14 ± 5.29 | -46.5 | 0.78
3 | COc1cc(-c2cc3n(c(=N)c2C#N)CCc2cc4c(cc2-3)OCO4)ccc1OC(C)C [EED396] |  | > 100 |  |  | 
4 | Cc1cc(C)n(-c2cc(N3CCc4ccccc4C3)ccc2[N+](=O)[O-])n1 [EED666] |  | > 100 |  |  | 
5 | COc1ccccc1CN1CC(c2cn(C)c3ccccc23)C(N(C)C)C1 (stereo not drawn) [EED709] |  | > 100 |  |  | 
